ChEMBL document CHEMBL5550117, “Dual-target inhibitors based on ERα: Novel therapeutic approaches for endocrine resistant breast cancer” (Eur J Med Chem, 2024)

Assays:
[1] = molecular target: T1, Protein deacetylase HDAC6 (Homo sapiens, UniProt Q9UBN7); experiment: Inhibition of HDAC6 (unknown origin)
T1 sequence (Q9UBN7 whole entry): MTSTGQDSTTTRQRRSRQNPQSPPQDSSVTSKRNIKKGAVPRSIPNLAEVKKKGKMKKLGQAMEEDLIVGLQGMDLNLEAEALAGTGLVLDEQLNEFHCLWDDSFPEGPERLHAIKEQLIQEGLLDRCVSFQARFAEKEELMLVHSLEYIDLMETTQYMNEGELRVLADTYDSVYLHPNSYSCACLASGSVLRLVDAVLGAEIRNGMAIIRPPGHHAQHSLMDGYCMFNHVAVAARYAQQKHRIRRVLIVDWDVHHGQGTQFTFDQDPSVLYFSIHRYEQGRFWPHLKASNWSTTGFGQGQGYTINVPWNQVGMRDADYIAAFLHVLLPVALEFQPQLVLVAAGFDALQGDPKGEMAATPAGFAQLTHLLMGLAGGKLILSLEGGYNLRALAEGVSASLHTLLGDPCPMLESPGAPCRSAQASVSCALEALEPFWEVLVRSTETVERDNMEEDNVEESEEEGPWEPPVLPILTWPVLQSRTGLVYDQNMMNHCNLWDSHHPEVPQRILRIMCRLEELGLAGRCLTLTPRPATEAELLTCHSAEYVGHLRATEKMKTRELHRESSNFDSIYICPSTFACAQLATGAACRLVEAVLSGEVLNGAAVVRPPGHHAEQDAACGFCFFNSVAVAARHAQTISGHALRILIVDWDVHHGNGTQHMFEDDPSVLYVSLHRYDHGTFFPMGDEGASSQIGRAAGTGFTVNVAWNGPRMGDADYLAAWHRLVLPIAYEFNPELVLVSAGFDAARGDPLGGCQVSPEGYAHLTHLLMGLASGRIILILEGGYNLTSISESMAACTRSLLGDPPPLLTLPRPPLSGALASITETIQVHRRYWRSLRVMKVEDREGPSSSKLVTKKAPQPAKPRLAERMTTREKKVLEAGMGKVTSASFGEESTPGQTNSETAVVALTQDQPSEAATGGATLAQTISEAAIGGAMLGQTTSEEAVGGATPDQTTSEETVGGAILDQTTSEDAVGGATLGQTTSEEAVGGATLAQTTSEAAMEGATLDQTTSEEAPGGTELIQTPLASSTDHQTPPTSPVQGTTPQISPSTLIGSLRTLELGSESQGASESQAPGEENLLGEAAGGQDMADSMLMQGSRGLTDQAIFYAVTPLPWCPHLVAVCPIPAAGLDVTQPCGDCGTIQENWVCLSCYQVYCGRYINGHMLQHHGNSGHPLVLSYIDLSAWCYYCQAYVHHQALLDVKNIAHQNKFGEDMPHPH

[2] = Inhibition of NF-kappaB pathway in human MCF7 cells assessed as reduction in TNFalpha level by RT-PCR analysis
MCF7 [3] = experiment: Antiproliferative activity against human MCF7 cells assessed as reduction in cell viability incubated for 48 hrs by MTT assay; details: MCF7, 48 h
MCF7 [4] = experiment: Anti-clonogenic activity in human MCF7 cells assessed as reduction of colony formation incubated for 2 weeks by crystal violet staining based assay; details: MCF7, 336 h

CC/C(=C(\c1ccccc1)c1ccc(OCCN(C)Cc2ccc(NC(=O)CCCCCCC(=O)NO)cc2)cc1)c1ccccc1
IC50 [1]: 2.2 µM

CCOC(=O)/C=C/C(=O)NCCOc1ccc(C(=O)c2c(-c3ccc(O)cc3)sc3cc(O)ccc23)cc1
IC50 [2]: 4 µM
IC50 (MCF7 [3]): 0.5 µM
IC50 (MCF7 [4]): 2 µM
